Entries after “also recorded” stand apart in the source; their conditions may differ.
Assays:
[1] = Enzymatic stability in plasma, HPLC; type: in vitro ADME; details: plasma specimen, 37° C., in the dark; read-out: Plasma T½ (converted)
Method: For the stability study, the solutions of pro-drug were prepared by dissolving an aliquot of Ketogal in a phosphate buffer at pH 7.4, or else in a solution of HCl 0.1 N (pH 1), as regards chemical stability, or else in a plasma specimen, for enzymatic stability. The solutions were kept in the dark, at a temperature of 37° C., for 24 hours. After each hour an aliquot of specimen was taken. In the case of plasma, said aliquot was previously extracted with acetonitrile (1:2), “vortexed” and centrifuged at 3000 r.p.m. for 10 min. The supernatant was taken and used for analysis at HPLC with diode detector. The half-lives for chemical stability and enzymatic stability were calculated by quantizing, in time, the percentage of pro-drug that remained in solution. For the chromatographic separations, a 1090L HPLC (Hewlett-Packard, Palo Alto, USA) was used, coupled to a diode detector HP 1040A. A Phenomenex Luna C18 (250×4.6 mm, 5 μm) column was used. The wavelength used was 313 nm. The mobile phase was constituted by acetonitrile and an aqueous solution of phosphoric acid […] (pH 3) in the ratio of 68:32. The flow was 1 mL/min, with an injection volume of 20 μl. All the reagents and the solvents used were of analytical degree. The distilled and deionized water was purified by means of a Milli Q system (Millipore). […] The straight line of calibration for quantification of the compounds was constructed using standard solutions with concentrations of between 0.1 and 100 μg/ml. […]
For the study of the stability, the solutions of pro-drug were prepared by dissolving an aliquot of Flugal in a phosphate buffer at pH 7.4, as regards chemical stability, or else in a plasma specimen, for enzymatic stability. […] The half-lives for the chemical stability and enzymatic stability were calculated by quantizing, in time, the percentage of pro-drug that remained in solution. […] For the quantitative determination reading was made at 250 nm. […] The straight line of calibration for the quantification of the compounds was constructed using standard solutions with concentrations of between 0.1 and 100 μg/ml. […]

[2] = Pharmacokinetic studies (plasma, stomach, kidney, liver); type: in vivo, Wistar rats
Method: The pharmacokinetic profile of Ketogal and of ketorolac was evaluated in Wistar rats by measuring the concentration of the two compounds in the plasma, in the stomach, in the kidney, and in the liver. The rats received ketorolac (0.100 mg/kg) or Ketogal (0.163 mg/kg) by oral route and were sacrificed after 1 h, 2 h, 4 h, and 6 h from administration. The various specimens were treated with acetonitrile, and the suspension was “vortexed” and centrifuged at 3000 r.p.m. for 10 min. The organic phase was injected in the same HPLC system used for the stability assays.

[3] = system: mouse carrageenan paw oedema; experiment: Carrageenan oedema test; type: in vivo, mice
Method: Anti-inflammatory activity was tested by means of the carrageenan oedema test. The mice were divided into groups of six. The initial volumes of the leg of all the animals were measured using a plethysmometer. The oedema is induced in the leg by means of sub-plantar injection of 50 μl of saline solution containing 1% of carrageenan. The volume of the leg was measured at different time intervals. Said experimental model consists of two phases: a first, acute, phase lasting 6 hours and a second, chronic, phase, up to 72 hours.
The anti-inflammatory activity of the physical mixture of ketorolac and galactose was evaluated with the carrageenan induced mice hind paw edema assay, as described for ketogal. […]
The carrageenan induced mice hind paw oedema assay described by D'Agostino et al. (2007) was used to evaluate the acute anti-inflammatory activity of the conjugate. Mice were divided into control and test groups of six animals each. Initial paw volumes of all animals were measured using a plethysmometer apparatus (Ugo Basile, Milan, Italy) before treatment. Paw oedema was induced by a subplantar injection of 50 μL of saline containing 1% λ-carrageenan into the right hind paw. […] free acid and ketogal were orally administrated 1 h before carrageenan challenge. Paw volume was measured at different time intervals by plethysmometer. The increase in paw volume was evaluated as the difference between the paw volume measured at each time point and the basal paw volume measured immediately before carrageenan injection.

IL-6 = experiment: Western blot in liver lysates, IL-6; type: in vivo, mice; details: ketogal 16.3 mg/Kg oral for 3, 5 and 7 days
Method: (§1) Animals were sacrificed and then liver, stomach and kidney were collected in glass tubes and analysed histologically and biochemically.
Liver samples were fixed in 10% buffered formalin and embedded in paraffin, sliced, and stained with hematoxylin & eosin (H&E) for assessment of liver pathology. […] To confirm histological data, western blot analysis for TNF-alpha, IL-6 and malonyldialdehyde assay were then performed in liver lysates.

PGE synthase = experiment: Western blot, stomach, PGE synthase protein expression; type: in vivo, mice; details: ketorolac 10 mg/Kg, ketogal 16.3 mg/Kg, oral, 3, 5 and 7 days
From the text: as §1

O=C(c1ccccc1)c1ccc2n1CC[C@@H]2C(=O)OCC1O[C@H](O)C(O)C(O)[C@H]1O (mixture of isomers) [Ketogal, ketorolac-D-galactos-6′-yl ester]
half-life [1]: 1.5 h
Oral availability ([2]; compared with ketorolac): better oral availability than ketorolac; also recorded: increased the oral availability of ketorolac
Behaviour of the pro-drug in the stomach ([2]; oral, Ketogal 0.163 mg/kg): hydrolyses progressively, releasing ketorolac
Presence of the pro-drug in plasma ([2]; oral, Ketogal 0.163 mg/kg): the pro-drug was not present
Presence of the pro-drug in the kidney ([2]; oral, Ketogal 0.163 mg/kg): no traces of the pro-drug
Presence of the pro-drug in the liver ([2]; oral, Ketogal 0.163 mg/kg): Ketogal reappeared
Concentration of ketorolac in the liver after Ketogal versus drug alone ([2]; oral, Ketogal 0.163 mg/kg versus ketorolac 0.100 mg/kg): always higher following upon administration of Ketogal
Plasma levels of ketorolac after administration of Ketogal versus ketorolac as such ([2]; oral, Ketogal 0.163 mg/kg, ketorolac 0.100 mg/kg, 1 h, 2 h, 4 h, 6 h): higher than the ones observed following upon administration of the drug as such
Anti-inflammatory activity compared with ketorolac ([3]; Ketogal 0.163 mg/kg versus ketorolac 0.1 mg/kg, oral and subcutaneous administration): better analgesic and anti-inflammatory activity than ketorolac
Oedema of the leg ([3]; Ketogal 0.163-16.3 mg/kg oral, 1 h prior to carrageenan): considerably reduces the oedema of the leg in a time-dependent and dose-dependent way
Formation of oedema, first phase ([3]; Ketogal 0.163-16.3 mg/kg oral, first, acute phase (6 hours)): all the doses tested inhibited formation of oedema
Effect on oedema, second phase ([3]; Ketogal oral, second, chronic phase up to 72 hours): continued also in the second phase
IL-6 level in liver (IL-6): no different compared to control mice
Gastric PGE synthase protein expression (PGE synthase): not inhibited

Reference: US8551958B2, “Galactosylated pro-drugs of non-steroidal anti-inflammatories with improved pharmacokinetic characteristics and reduced toxicity of the starting drug” (Stewart Italia Srl, priority 2008, dated 2013)
